Measurements reported in patent US20180036289A1 (Gilead Sciences, Inc., priority 2016, published 2018).

Experiments:
Experiment in all cases: Cell proliferation assay (ATPlite), drug with vs without cobicistat
Format in all cases: cell-based
[1] = test system: Hs 578T; settings: Hs 578T cell line; 120 hours incubation
Method: (§1) All cell lines were obtained from the American Type Culture Collection (ATCC) Manassas, Va. (US). Master and working cell banks (MCB and WCB) were prepared by subculturing in ATCC-recommended media and freezing protocols (www.atcc.org). Cell line stocks for the assays were prepared from the WCB. The MCB, WCBs and assay stocks were prepared within respectively 3, 6 and 9 passages of the ATCC vial.
(§2) Solid powders of reference compounds were weighed on a calibrated balance and dissolved in 100% DMSO. DMSO samples were stored at room temperature. At the day of the experiment, the compound stock was diluted in 3.16 fold steps in 100% DMSO to obtain a 9-point dilution series. This was further diluted 31.6 times in 20 mM sterile Hepes buffer pH 7.4. A volume of 5 μl was transferred to the cells to generate a test concentration range from 3.16×10^−5M to 3.16×10^−9 M in duplicate. The final DMSO concentration during incubation was […] in all wells.
(§3) An assay stock was thawed and diluted in its ATCC recommended medium and dispensed in a 384-well plate, depending on the cell line used, at a concentration of 200-3200 cells per well in 45 μl medium. For each used cell line the optimal cell density is used. The margins of the plate were filled with phosphate-buffered saline. Plated cells were incubated in a humidified atmosphere of 5% CO2 at 37° C. After 24 hours, 5 μl of compound dilution was added and plates were further incubated for another 120 hours. After 120 hours, 25 μl of ATPlite 1Step™ (PerkinElmer) solution was added to each well, and subsequently shaken for 2 minutes. After 10 minutes of incubation in the dark, the luminescence was recorded on an Envision multimode reader (PerkinElmer).
(§4) IC50s were calculated by non-linear regression using IDBS XLfit 5. The percentage growth after 120 h (%-growth) was calculated as follows: 100%×(luminescencet=120h/luminescenceuntreated,t=120h). This was fitted to the ^10log compound concentration (conc) by a 4-parameter logistics curve: %−growth=bottom+(top−bottom)/(1+10^(log IC50-conc)*hill)), where hill is the Hill-coefficient, and bottom and top the asymptotic minimum and maximum cell growth that the compound allows in that assay.

[2] = test system: SW48; settings: SW48 cell line; 120 hours incubation
Method: as §1, §2, §3, §4

[3] = test system: BxPC-3; settings: BxPC-3 cell line; 120 hours incubation
Method: as §1, §2, §3, §4

[4] = test system: DoTc2 4510; settings: DoTc2 4510 cell line; 120 hours incubation
Method: as §1, §2, §3, §4

[5] = test system: SUP-T1; settings: SUP-T1 cell line; 120 hours incubation
Method: as §1, §2, §3, §4

[6] = test system: DU 145; settings: DU 145 cell line; 120 hours incubation
Method: as §1, §2, §3, §4

[7] = test system: MG-63; settings: MG-63 cell line; 120 hours incubation
Method: as §1, §2, §3, §4

[8] = test system: LNCaP FGC; settings: LNCaP FGC cell line; 120 hours incubation
Method: as §1, §2, §3, §4

[9] = test system: C-33 A; settings: C-33 A cell line; 120 hours incubation
Method: as §1, §2, §3, §4

[10] = test system: SNU-C2B; settings: SNU-C2B cell line; 120 hours incubation
Method: as §1, §2, §3, §4

[11] = test system: MOLT-4; settings: MOLT-4 cell line; 120 hours incubation
Method: as §1, §2, §3, §4

[12] = test system: MIA PaCa-2; settings: MIA PaCa-2 cell line; 120 hours incubation
Method: as §1, §2, §3, §4

[13] = test system: 769-P; settings: 769-P cell line; 120 hours incubation
Method: as §1, §2, §3, §4

[14] = test system: HCT-15; settings: HCT-15 cell line; 120 hours incubation
Method: as §1, §2, §3, §4

[15] = test system: 786-O; settings: 786-O cell line; 120 hours incubation
Method: as §1, §2, §3, §4

[16] = test system: SW480; settings: SW480 cell line; 120 hours incubation
Method: as §1, §2, §3, §4

[17] = test system: SW620; settings: SW620 cell line; 120 hours incubation
Method: as §1, §2, §3, §4

[18] = test system: RPMI-7951; settings: RPMI-7951 cell line; 120 hours incubation
Method: as §1, §2, §3, §4

[19] = test system: AU-565; settings: AU-565 cell line; 120 hours incubation
Method: as §1, §2, §3, §4

[20] = test system: T98G; settings: T98G cell line; 120 hours incubation
Method: as §1, §2, §3, §4

[21] = test system: T24; settings: T24 cell line; 120 hours incubation
Method: as §1, §2, §3, §4

[22] = test system: SK-N-AS; settings: SK-N-AS cell line; 120 hours incubation
Method: as §1, §2, §3, §4

[23] = test system: LoVo; settings: LoVo cell line; 120 hours incubation
Method: as §1, §2, §3, §4

[24] = test system: CAL 27; settings: CAL 27 cell line; 120 hours incubation
Method: as §1, §2, §3, §4

[25] = test system: J82; settings: J82 cell line; 120 hours incubation
Method: as §1, §2, §3, §4

[26] = test system: A-704; settings: A-704 cell line; 120 hours incubation
Method: as §1, §2, §3, §4

[27] = test system: SR; settings: SR cell line; 120 hours incubation
Method: as §1, §2, §3, §4

[28] = test system: KU812; settings: KU812 cell line; 120 hours incubation
Method: as §1, §2, §3, §4

[29] = test system: OVCAR-3; settings: OVCAR-3 cell line; 120 hours incubation
Method: as §1, §2, §3, §4

[30] = test system: AsPC-1; settings: AsPC-1 cell line; 120 hours incubation
Method: as §1, §2, §3, §4

SMILES	Fold change in IC50 (IC50 [Drug + Cobicistat]/IC50 [Drug]) [1] [fold]	Fold change in IC50 (IC50 [Drug + Cobicistat]/IC50 [Drug]) [2] [fold]	Fold change in IC50 (IC50 [Drug + Cobicistat]/IC50 [Drug]) [3] [fold]	Fold change in IC50 (IC50 [Drug + Cobicistat]/IC50 [Drug]) [4] [fold]	Fold change in IC50 (IC50 [Drug + Cobicistat]/IC50 [Drug]) [5] [fold]	Fold change in IC50 (IC50 [Drug + Cobicistat]/IC50 [Drug]) [6] [fold]	Fold change in IC50 (IC50 [Drug + Cobicistat]/IC50 [Drug]) [7] [fold]	Fold change in IC50 (IC50 [Drug + Cobicistat]/IC50 [Drug]) [8] [fold]	Fold change in IC50 (IC50 [Drug + Cobicistat]/IC50 [Drug]) [9] [fold]	Fold change in IC50 (IC50 [Drug + Cobicistat]/IC50 [Drug]) [10] [fold]	Fold change in IC50 (IC50 [Drug + Cobicistat]/IC50 [Drug]) [11] [fold]	Fold change in IC50 (IC50 [Drug + Cobicistat]/IC50 [Drug]) [12] [fold]	Fold change in IC50 (IC50 [Drug + Cobicistat]/IC50 [Drug]) [13] [fold]	Fold change in IC50 (IC50 [Drug + Cobicistat]/IC50 [Drug]) [14] [fold]	Fold change in IC50 (IC50 [Drug + Cobicistat]/IC50 [Drug]) [15] [fold]	Fold change in IC50 (IC50 [Drug + Cobicistat]/IC50 [Drug]) [16] [fold]	Fold change in IC50 (IC50 [Drug + Cobicistat]/IC50 [Drug]) [17] [fold]	Fold change in IC50 (IC50 [Drug + Cobicistat]/IC50 [Drug]) [18] [fold]	Fold change in IC50 (IC50 [Drug + Cobicistat]/IC50 [Drug]) [19] [fold]	Fold change in IC50 (IC50 [Drug + Cobicistat]/IC50 [Drug]) [20] [fold]	also measured
CC[C@]1(O)C[C@@H]2CN(CCc3c([nH]c4ccccc34)[C@@](C(=O)OC)(c3cc4c(cc3OC)N(C)[C@H]3[C@@](O)(C(=O)OC)[C@H](OC(C)=O)[C@]5(CC)C=CCN6CC[C@]43[C@@H]65)C2)C1 [vinblastine]	3.7	2.5	2.4	5.0	3.0	5.4	2.8	4.0	1.9	4.5	2.8	3.7	2.5	2.3	2.5	3.3	2.7	3.2	3.0	4.9	Fold change in IC50 (IC50 [Drug + Cobicistat]/IC50 [Drug]) [21]: 5.2 fold; Fold change in IC50 (IC50 [Drug + Cobicistat]/IC50 [Drug]) [22]: 3.7 fold; Fold change in IC50 (IC50 [Drug + Cobicistat]/IC50 [Drug]) [23]: 1.9 fold; Fold change in IC50 (IC50 [Drug + Cobicistat]/IC50 [Drug]) [24]: 2.8 fold; Fold change in IC50 (IC50 [Drug + Cobicistat]/IC50 [Drug]) [25]: 4.2 fold; Fold change in IC50 (IC50 [Drug + Cobicistat]/IC50 [Drug]) [26]: 3.8 fold; Fold change in IC50 (IC50 [Drug + Cobicistat]/IC50 [Drug]) [27]: 4.0 fold; Fold change in IC50 (IC50 [Drug + Cobicistat]/IC50 [Drug]) [28]: 4.4 fold; Fold change in IC50 (IC50 [Drug + Cobicistat]/IC50 [Drug]) [29]: 2.6 fold; Fold change in IC50 (IC50 [Drug + Cobicistat]/IC50 [Drug]) [30]: 5.6 fold
CC[C@]1(O)C[C@H]2CN(CCc3c([nH]c4ccccc34)[C@@](C(=O)OC)(c3cc4c(cc3OC)N(C=O)[C@H]3[C@@](O)(C(=O)OC)[C@H](OC(C)=O)[C@]5(CC)C=CCN6CC[C@]43[C@@H]65)C2)C1 [vincristine]	2.8	2.7	4.1	6.2	3.6	3.8	3.8	3.6	2.7	2.4	2.1	3.6	3.5	2.1	2.5	3.3	3.0	4.6	3.0	4.1	Fold change in IC50 (IC50 [Drug + Cobicistat]/IC50 [Drug]) [21]: 4.4 fold; Fold change in IC50 (IC50 [Drug + Cobicistat]/IC50 [Drug]) [22]: 4.7 fold; Fold change in IC50 (IC50 [Drug + Cobicistat]/IC50 [Drug]) [23]: 1.6 fold; Fold change in IC50 (IC50 [Drug + Cobicistat]/IC50 [Drug]) [24]: 2.6 fold; Fold change in IC50 (IC50 [Drug + Cobicistat]/IC50 [Drug]) [25]: 3.6 fold; Fold change in IC50 (IC50 [Drug + Cobicistat]/IC50 [Drug]) [26]: 2.0 fold; Fold change in IC50 (IC50 [Drug + Cobicistat]/IC50 [Drug]) [27]: 3.6 fold; Fold change in IC50 (IC50 [Drug + Cobicistat]/IC50 [Drug]) [28]: 3.7 fold; Fold change in IC50 (IC50 [Drug + Cobicistat]/IC50 [Drug]) [29]: 4.0 fold; Fold change in IC50 (IC50 [Drug + Cobicistat]/IC50 [Drug]) [30]: 3.1 fold
